# Where a name gives a salt, the structure may show the parent alone.
# Tests used:
# [1] = molecular target: T1, human β1-receptor (Homo sapiens, UniProt P08588); assay: Human β1-receptor stimulation test (cAMP production in THP-1 cells); type: cell-based
# T1 construct: THP-1 cell line, i.e., cells expressing both human β2- and β1-receptors; host or cells: THP-1 cells
# Source text: (§1) Human β3, β2 and β1-receptor stimulation test
# (§2) Human β3-receptor-stimulating activity was studied using SK-N-MC cell line, i.e., cells permanently expressing human β3- and human β1-receptors (SK-N-MC cells, purchased from Dainippon Pharmaceutical Co., Ltd.), and human β2- and β1-receptor-stimulating activities were studied using THP-1 cell line, i.e., cells expressing both human β2- and β1-receptors (THP-1 cells, purchased Dainippon Pharmaceutical Co., Ltd.).
# (§3) The β3-receptor stimulating activity of a test compound (10^−9 to 10^−5 M) was studied using as an index cyclic AMP (hereinafter, referred to as cAMP) producing activity of SK-N-MC cells at almost confluent in the presence of a β1-receptor inhibitor ((±)-2-hydroxy-5-(2-((2-hydroxy-3-(4-(1-methyl-4-(trifluoromethyl)-1H-imidazol-2-yl)phenoxy)propyl)-amino)ethoxy)benzamide methanesulfonate, CGP-20712A (Sigma-Aldrich), 10^−6M), wherein said SK-N-MC cells were seeded into a 96-well plate at a cell density of 2×10^4 cells/well and had been cultured for 3 days. […] The cAMP production in the cells was measured by ELISA method. […]
# [2] = tested on: β1-adrenoceptor; assay: Autonomic beat of the excised right atrium specimen (positive chronotropic action, Magnus method); set-up: species or system Hartley guinea pig; conditions: method of Experiment 2
# Description: Effect of a medicament on autonomic beat of the excised right atrium specimen based on β1-adrenoceptor-stimulating activity (study on positive chronotropic action)
# The heart of Hartley guinea pig was excised, and a right atrium specimen was prepared therefrom and the experiment was carried out thereon according to Magnus method. The specimen was hung at 34° C. in Krebs-Henseleit solution to which a mixed gas of 95% oxygen and 5% carbon dioxide was aerated, and loaded so that the maximum resting tension became about 0.5 g. The autonomic beat of the right atrium was detected through a pressure transducer, and the tension and the beat were continuously recorded onto a linear recorder. A medicament was cumulatively added every time the beat became plateau. […]
# In order to show the divergence between β3-stimulating activity/β1-stimulating activity in the experimental results, the EC50 value of positive chronotropic action of the test compound of Examples obtained in Experiment 2 was divided by the EC50 value of human β3-stimulating activity of said compound obtained in Experiment 1, which is the main activity in Experiment 1. The results are expressed by relative values, which are calculated by counting the value of the reference compound (AJ 9677) as 1.
# [3] = molecular target: T2, human β3-receptor (Homo sapiens, UniProt P13945); assay: Human β3-receptor stimulation test (cAMP production in SK-N-MC cells); type: cell-based; conditions: in the presence of β1-receptor inhibitor CGP-20712A 10^−6 M, read-out: EC50 value of β3-stimulating activity
# T2 construct: SK-N-MC cell line, i.e., cells permanently expressing human β3- and human β1-receptors; host or cells: SK-N-MC cells
# T2 sequence (P13945 whole entry): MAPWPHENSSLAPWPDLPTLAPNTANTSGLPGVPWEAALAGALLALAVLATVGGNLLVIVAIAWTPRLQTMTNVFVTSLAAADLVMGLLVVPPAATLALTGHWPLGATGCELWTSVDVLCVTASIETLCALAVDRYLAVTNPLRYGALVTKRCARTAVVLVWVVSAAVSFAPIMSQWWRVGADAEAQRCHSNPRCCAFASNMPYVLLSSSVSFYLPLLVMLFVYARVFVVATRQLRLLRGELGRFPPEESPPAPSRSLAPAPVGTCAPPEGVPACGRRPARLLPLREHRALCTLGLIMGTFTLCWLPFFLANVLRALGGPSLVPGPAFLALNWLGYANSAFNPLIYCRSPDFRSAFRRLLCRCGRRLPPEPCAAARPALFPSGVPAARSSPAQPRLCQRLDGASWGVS
# Source text: as §1, §2, §3
# [4] = molecular target: T3, human β2-receptor (Homo sapiens, UniProt P07550); assay: Human β2-receptor stimulation test (cAMP production in THP-1 cells); type: cell-based; conditions: with CGP-20712A, activity not observed up to a maximum concentration, read-out: β2-stimulating activity
# T3 construct: THP-1 cell line, i.e., cells expressing both human β2- and β1-receptors; host or cells: THP-1 cells
# T3 sequence (P07550 whole entry): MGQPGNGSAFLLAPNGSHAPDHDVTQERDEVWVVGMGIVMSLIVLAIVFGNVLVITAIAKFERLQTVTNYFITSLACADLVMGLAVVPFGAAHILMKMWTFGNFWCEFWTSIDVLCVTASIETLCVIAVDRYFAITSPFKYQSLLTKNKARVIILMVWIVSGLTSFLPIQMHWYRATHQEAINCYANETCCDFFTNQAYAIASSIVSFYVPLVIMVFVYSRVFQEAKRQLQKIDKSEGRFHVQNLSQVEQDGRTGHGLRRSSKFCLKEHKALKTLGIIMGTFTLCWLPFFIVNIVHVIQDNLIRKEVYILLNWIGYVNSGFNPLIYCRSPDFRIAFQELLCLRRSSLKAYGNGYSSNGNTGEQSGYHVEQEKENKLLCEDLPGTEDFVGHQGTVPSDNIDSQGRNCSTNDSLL
# Source text: as §1, §2, §3
# T1 sequence (P08588 whole entry): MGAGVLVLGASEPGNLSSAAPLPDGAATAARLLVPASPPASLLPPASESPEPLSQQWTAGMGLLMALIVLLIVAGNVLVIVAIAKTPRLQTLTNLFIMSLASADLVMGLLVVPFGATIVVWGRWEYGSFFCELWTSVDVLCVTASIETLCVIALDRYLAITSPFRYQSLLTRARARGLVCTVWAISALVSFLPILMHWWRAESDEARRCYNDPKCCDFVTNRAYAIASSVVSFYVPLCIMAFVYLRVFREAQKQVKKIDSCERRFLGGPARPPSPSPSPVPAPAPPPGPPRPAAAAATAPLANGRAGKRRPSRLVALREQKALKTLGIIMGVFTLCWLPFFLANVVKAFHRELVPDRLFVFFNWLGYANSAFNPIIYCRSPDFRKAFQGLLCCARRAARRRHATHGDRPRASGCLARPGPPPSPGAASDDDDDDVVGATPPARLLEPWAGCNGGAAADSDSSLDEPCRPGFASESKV
SMILES,"β1- and/or β2-adrenoceptor-stimulating activities in the conventional evaluation system ([1]; cells, method of Experiment 1 (β1 and β2, THP-1 cells))",β1- and/or β2-adrenoceptor-stimulating activities in the evaluation system using tissues [2],"EC50 ([1]; THP-1 cells, cAMP production, with ICI-118551, activity not observed up to a maximum concentration, read-out: β1-stimulating activity)",EC50 [3],EC50 [4]
"C[C@H](Cc1c[nH]c2c(OCC(=O)O)cccc12)NC[C@H](O)c1cccc(Cl)c1 [AJ 9677, reference compound]",does not exhibit β1- and/or β2-adrenoceptor-stimulating activities,exhibits β1- and/or β2-adrenoceptor-stimulating activities,,,
"C[C@H](Cc1c[nH]c2c(OCC(=O)O)cccc12)NC[C@H](O)c1cccnc1 [Example 2, {3-[(2 R)-2-((2R)-2-Hydroxy-2-pyridin-3-ylethylamino)propyl]-1 H-indol-7-yloxy}acetic acid.2 trifluoroacetate]",,,> 10 µM,0.048 µM,> 10 µM

# Source: US7217724B2, “Indole, indazole, and benzazole derivative” (Dainippon Sumitomo Pharma Co., Ltd., priority 2002, dated 2007)
